Source: PubChem BioAssay AID1918955 (Molecular Pharmacology Branch, DTP, NCI, 2023)
pIC50: −log10 of the molar value.

System: NCI/ADR-RES complex spheroid viability
Assay: Anticancer human tumor NCI/ADR-RES cell line growth inhibition;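 also: spheroids exposed to compounds for 7 days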;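 as to viability, T/C: 100% = DMSO vehicle treated spheroids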
Settings: for pIC50: curve of first compound; for viability, T/C: stronger effect = lower value; active = viability on the fitted dose curve at most 10% of control; inactive = the rest
Procedure, shortened: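 Drug combinations with the LSD1 inhibitor iadademstat tested on tumor cells co-cultured as spheroids with endothelial cells and mesenchymal stem cells. Concentrations descended in half-log increments from clinical Cmax or 10 microM.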

[1] = second compound 0.1 µM, first compound 0.0316 µM
[2] = second compound 0.1 µM, first compound 0.1 µM
[3] = second compound 0.1 µM, first compound 0.316 µM
[4] = second compound 0.1 µM, first compound 1 µM
[5] = second compound 0.1 µM, first compound 3.16 µM
[6] = second compound 0.1 µM, first compound 10 µM
[7] = second compound 0.316 µM, first compound 0.0316 µM
[8] = second compound 0.316 µM, first compound 0.1 µM
[9] = second compound 0.316 µM, first compound 0.316 µM
[10] = second compound 0.316 µM, first compound 1 µM
[11] = second compound 0.316 µM, first compound 3.16 µM
[12] = second compound 0.316 µM, first compound 10 µM
[13] = second compound 1 µM, first compound 0.0316 µM
[14] = second compound 1 µM, first compound 0.1 µM
[15] = second compound 1 µM, first compound 0.316 µM
[16] = second compound 1 µM, first compound 1 µM
[17] = second compound 1 µM, first compound 3.16 µM
[18] = second compound 1 µM, first compound 10 µM
[19] = second compound 3.16 µM, first compound 0.0316 µM
[20] = second compound 3.16 µM, first compound 0.1 µM
[21] = second compound 3.16 µM, first compound 0.316 µM
[22] = second compound 3.16 µM, first compound 1 µM
[23] = second compound 3.16 µM, first compound 3.16 µM
[24] = second compound 3.16 µM, first compound 10 µM
[25] = second compound 10 µM, first compound 0.0316 µM
[26] = second compound 10 µM, first compound 0.1 µM
[27] = second compound 10 µM, first compound 0.316 µM
[28] = second compound 10 µM, first compound 1 µM
[29] = second compound 10 µM, first compound 3.16 µM
[30] = second compound 10 µM, first compound 10 µM
[31] = second compound 0.1 µM, first compound 0.00949 µM
[32] = second compound 0.1 µM, first compound 0.03 µM
[33] = second compound 0.1 µM, first compound 0.0949 µM
[34] = second compound 0.1 µM, first compound 0.3 µM
[35] = second compound 0.316 µM, first compound 0.00949 µM
[36] = second compound 0.316 µM, first compound 0.03 µM
[37] = second compound 0.316 µM, first compound 0.0949 µM
[38] = second compound 0.316 µM, first compound 0.3 µM
[39] = second compound 1 µM, first compound 0.00949 µM
[40] = second compound 1 µM, first compound 0.03 µM
[41] = second compound 1 µM, first compound 0.0949 µM
[42] = second compound 1 µM, first compound 0.3 µM
[43] = second compound 3.16 µM, first compound 0.00949 µM
[44] = second compound 3.16 µM, first compound 0.03 µM
[45] = second compound 3.16 µM, first compound 0.0949 µM
[46] = second compound 3.16 µM, first compound 0.3 µM
[47] = second compound 10 µM, first compound 0.00949 µM
[48] = second compound 10 µM, first compound 0.03 µM
[49] = second compound 10 µM, first compound 0.0949 µM
[50] = second compound 10 µM, first compound 0.3 µM

CC1(C)CCC(CN2CCN(c3ccc(C(=O)NS(=O)(=O)c4ccc(NCC5CCOCC5)c([N+](=O)[O-])c4)c(Oc4cnc5[nH]ccc5c4)c3)CC2)=C(c2ccc(Cl)cc2)C1 + NC1CC1c1ccc(-c2cccc(O)c2)cc1
inactive: viability, T/C [1] 107% | viability, T/C [2] 109% | viability, T/C [3] 109% | viability, T/C [4] 104% | viability, T/C [5] 101% | viability, T/C [6] 95.6% | viability, T/C [7] 110% | viability, T/C [8] 111% | viability, T/C [9] 113% | viability, T/C [10] 101% | viability, T/C [11] 103% | viability, T/C [12] 89.7% | viability, T/C [13] 103% | viability, T/C [14] 106% | viability, T/C [15] 103% | viability, T/C [16] 99.8% | viability, T/C [17] 101% | viability, T/C [18] 99.4% | viability, T/C [19] 97.1% | viability, T/C [20] 97.8% | viability, T/C [21] 102% | viability, T/C [22] 108% | viability, T/C [23] 98.6% | viability, T/C [24] 89.8% | viability, T/C [25] 88.6% | viability, T/C [26] 98.4% | viability, T/C [27] 92.3% | viability, T/C [28] 94.5% | viability, T/C [29] 81.6% | viability, T/C [30] 75.7%
< 5.00: pIC50 (second compound 0.1 µM) | pIC50 (second compound 0.316 µM) | pIC50 (second compound 1 µM) | pIC50 (second compound 3.16 µM) | pIC50 (second compound 10 µM)

CC1COCCN1c1cc(C2(S(C)(=N)=O)CC2)nc(-c2ccnc3[nH]ccc23)n1 (stereo not given) + NC1CC1c1ccc(-c2cccc(O)c2)cc1
inactive: viability, T/C [1] 108% | viability, T/C [2] 108% | viability, T/C [3] 97.4% | viability, T/C [4] 90% | viability, T/C [5] 71.5% | viability, T/C [6] 40.4% | viability, T/C [7] 110% | viability, T/C [8] 104% | viability, T/C [9] 103% | viability, T/C [10] 91.8% | viability, T/C [11] 73.2% | viability, T/C [12] 48.7% | viability, T/C [13] 96.4% | viability, T/C [14] 97.4% | viability, T/C [15] 93.8% | viability, T/C [16] 90.1% | viability, T/C [17] 64.8% | viability, T/C [18] 39.4% | viability, T/C [19] 101% | viability, T/C [20] 95.1% | viability, T/C [21] 95.8% | viability, T/C [22] 86% | viability, T/C [23] 65.4% | viability, T/C [24] 40.6% | viability, T/C [25] 93.2% | viability, T/C [26] 94.1% | viability, T/C [27] 84.9% | viability, T/C [28] 71.6% | viability, T/C [29] 61.3% | viability, T/C [30] 38.5%
5.19: pIC50 (second compound 3.16 µM)
5.21: pIC50 (second compound 1 µM)
5.15: pIC50 (second compound 0.1 µM)
5.27: pIC50 (second compound 10 µM)
5.03: pIC50 (second compound 0.316 µM)

CCN(c1cc(-c2ccc(CN3CCOCC3)cc2)cc(C(=O)NCc2c(C)cc(C)[nH]c2=O)c1C)C1CCOCC1 + NC1CC1c1ccc(-c2cccc(O)c2)cc1
inactive: viability, T/C [31] 102% | viability, T/C [32] 104% | viability, T/C [33] 104% | viability, T/C [34] 106% | viability, T/C (second compound 0.1 µM, first compound 0.949 µM) 94.2% | viability, T/C (second compound 0.1 µM, first compound 3 µM) 88.9% | viability, T/C [35] 104% | viability, T/C [36] 102% | viability, T/C [37] 104% | viability, T/C [38] 103% | viability, T/C (second compound 0.316 µM, first compound 0.949 µM) 105% | viability, T/C (second compound 0.316 µM, first compound 3 µM) 95.5% | viability, T/C [39] 92.1% | viability, T/C [40] 96.3% | viability, T/C [41] 104% | viability, T/C [42] 90.2% | viability, T/C (second compound 1 µM, first compound 0.949 µM) 93.4% | viability, T/C (second compound 1 µM, first compound 3 µM) 87.7% | viability, T/C [43] 93% | viability, T/C [44] 99% | viability, T/C [45] 95.3% | viability, T/C [46] 94.9% | viability, T/C (second compound 3.16 µM, first compound 0.949 µM) 90.2% | viability, T/C (second compound 3.16 µM, first compound 3 µM) 81.8% | viability, T/C [47] 92.6% | viability, T/C [48] 87.8% | viability, T/C [49] 91.8% | viability, T/C [50] 86.7% | viability, T/C (second compound 10 µM, first compound 0.949 µM) 82.7% | viability, T/C (second compound 10 µM, first compound 3 µM) 79%
< 5.52: pIC50 (second compound 0.1 µM) | pIC50 (second compound 0.316 µM) | pIC50 (second compound 1 µM) | pIC50 (second compound 3.16 µM) | pIC50 (second compound 10 µM)

Nc1ncn(C2CC(O)C(CO)S2)c(=O)n1 (stereo not given) + NC1CC1c1ccc(-c2cccc(O)c2)cc1
inactive: viability, T/C (second compound 0.1 µM, first compound 0.000949 µM) 89.3% | viability, T/C (second compound 0.1 µM, first compound 0.003 µM) 66% | viability, T/C [31] 44.7% | viability, T/C [32] 29.6% | viability, T/C [33] 11.8% | viability, T/C (second compound 0.316 µM, first compound 0.000949 µM) 91.2% | viability, T/C (second compound 0.316 µM, first compound 0.003 µM) 62.5% | viability, T/C [35] 47.8% | viability, T/C [36] 30.6% | viability, T/C [37] 9.77% | viability, T/C (second compound 1 µM, first compound 0.000949 µM) 88.4% | viability, T/C (second compound 1 µM, first compound 0.003 µM) 68% | viability, T/C [39] 41.2% | viability, T/C [40] 25.5% | viability, T/C [41] 9.64% | viability, T/C (second compound 3.16 µM, first compound 0.000949 µM) 85.4% | viability, T/C (second compound 3.16 µM, first compound 0.003 µM) 58.3% | viability, T/C [43] 43% | viability, T/C [44] 24.6% | viability, T/C [45] 9.31% | viability, T/C (second compound 10 µM, first compound 0.000949 µM) 77% | viability, T/C (second compound 10 µM, first compound 0.003 µM) 54% | viability, T/C [47] 38.6% | viability, T/C [48] 26.2% | viability, T/C [49] 11.8%
8.12: pIC50 (second compound 0.316 µM)
8.35: pIC50 (second compound 10 µM)
8.26: pIC50 (second compound 3.16 µM)
8.13: pIC50 (second compound 0.1 µM)
active: viability, T/C [34] 2.46% | viability, T/C [38] 2.75% | viability, T/C [42] 2.79% | viability, T/C [46] 2.63% | viability, T/C [50] 3.24%
8.17: pIC50 (second compound 1 µM)

O=C(C=Cn1cnc(-c2cc(C(F)(F)F)cc(C(F)(F)F)c2)n1)NNc1cnccn1 + NC1CC1c1ccc(-c2cccc(O)c2)cc1
8.35: pIC50 (second compound 0.316 µM)
8.40: pIC50 (second compound 10 µM)
8.32: pIC50 (second compound 3.16 µM)
8.33: pIC50 (second compound 0.1 µM)
active: viability, T/C [1] 13% | viability, T/C [2] 6.61% | viability, T/C [3] 1.72% | viability, T/C [4] 0.88% | viability, T/C [8] 7.91% | viability, T/C [9] 2.06% | viability, T/C [10] 1.08% | viability, T/C [14] 8.19% | viability, T/C [15] 1.99% | viability, T/C [16] 0.85% | viability, T/C [20] 10.7% | viability, T/C [21] 2.96% | viability, T/C [22] 0.98% | viability, T/C [26] 10.1% | viability, T/C [27] 5.13% | viability, T/C [28] 2.52%
8.38: pIC50 (second compound 1 µM)
inactive: viability, T/C (second compound 0.1 µM, first compound 0.00316 µM) 65.4% | viability, T/C (second compound 0.1 µM, first compound 0.01 µM) 19.6% | viability, T/C (second compound 0.316 µM, first compound 0.00316 µM) 60.6% | viability, T/C (second compound 0.316 µM, first compound 0.01 µM) 23.3% | viability, T/C [7] 12.6% | viability, T/C (second compound 1 µM, first compound 0.00316 µM) 59.5% | viability, T/C (second compound 1 µM, first compound 0.01 µM) 20.4% | viability, T/C [13] 13.9% | viability, T/C (second compound 3.16 µM, first compound 0.00316 µM) 64.2% | viability, T/C (second compound 3.16 µM, first compound 0.01 µM) 22.7% | viability, T/C [19] 16.5% | viability, T/C (second compound 10 µM, first compound 0.00316 µM) 57.1% | viability, T/C (second compound 10 µM, first compound 0.01 µM) 22.1% | viability, T/C [25] 16%
